# Data from patent US8685934B2, “Methods for treating extreme insulin resistance in patients resistant to previous treatment with other anti-diabetic drugs employing an SGLT2 inhibitor and compositions thereof” (Bristol-Myers Squibb Company, priority 2009, dated 2014).
# Like-named read-outs stand apart in the source and are kept apart here.
# Tested on: highly insulin-resistant T2DM patients poorly controlled with insulin plus metformin and/or thiazolidinediones
# Conditions: for Total daily insulin dose, mean (SD), End of Double-blind (Week 12 LOCF) / Total daily insulin dose, change from baseline, mean (95% CI): includes data after insulin up-titration; for Total daily insulin dose, mean (SD), End of Double-blind (Week 12 LOCF): U = units of U100 insulin; for Postprandial glucose, mean (SD), End of Double-blind (Week 12 LOCF): measured at 120 minutes by OGTT; for Postprandial glucose, change from baseline, mean (95% CI): 120 minutes by OGTT; for Fasting plasma glucose, change from baseline, mean (95% CI) / HbA1c, change from baseline, mean (95% CI) / Weight, change from baseline, mean (95% CI) / Total daily insulin dose, change from baseline, mean (95% CI): ANCOVA-adjusted
# Procedure: Criteria for management of hyperglycemia were determined by fasting plasma glucose (FPG) measurements. For any FPG level >240 mg/dL at weeks 4 and 6, >220 mg/dL at week 8, or >200 mg/dL at week 10, the patient would be scheduled for a follow-up visit in 3 to 5 days. If FPG was still above the threshold at follow-up, a visit was scheduled in order to increase the insulin dose as clinically indicated. Patients who further lacked glycemic control despite up-titration, or whose modified insulin dose exceeded baseline, were discontinued from blinded treatment and entered into follow-up.
# All patients were on insulin-sensitizer therapy for at least 6 weeks prior to enrollment and insulin-based therapy for at least 12 weeks prior to enrollment. The study protocol defined insulin-sensitizer therapy as metformin (stable dose ≧1000 mg) and/or pioglitazone (stable dose ≧30 mg) or rosiglitazone (stable dose 4 mg). Insulin-based therapy was defined as subcutaneous insulin for at least 12 weeks prior to enrollment, with 2 minimum insulin daily dose equivalent to 50 units (median 85 to 93 units across all study arms) of U100 insulin per day. The insulin regimen must have been stable for at least 6 weeks. In addition to 10 mg dapagliflozin or 20 mg dapagliflozin daily or placebo, 74.6% of patients received metformin (≧1000 mg daily) plus insulin; 16.9% of patients received metformin (≧1000 mg daily) plus pioglitazone (≧30 mg daily) or rosiglitazone (4 mg daily) plus insulin and 8.5% of patients received pioglitazone (≧30 mg daily) or rosiglitazone (4 mg daily) plus insulin.
# Patients in Cohort 1 were evaluated for safety only. Patients in Cohort 2 were evaluated for safety and efficacy. The primary efficacy measure was change from baseline in HbAlc, at week 12, last observation carried forward (LOCF). If no week 12 assessment was available, the last observation prior to week 12 was used. Secondary efficacy measures included changes from baseline at week 12 (LOCF) in FPG and insulin dose, the proportion of patients achieving a decrease in HbAlc>0.5% from baseline at week 12 (LOCF), and the proportion of patients achieving HbAlc<7% at week 12 (LOCF). Tertiary endpoints included changes from baseline in total body weight and in postprandial glucose (PPG) measured by an oral glucose tolerance test (OGTT).
# Patients in Cohort 2 were evaluated for safety and efficacy. The primary efficacy measure was change from baseline in HbAlc at week 12, last observation carried forward (LOCF). The analysis was done excluding data after up-titration of insulin. If no week 12 assessment was available, the last observation prior to week 12 was used.
# For Cohort 2, the sample size target of 22 patients per treatment group was chosen to allow for the calculation of 95% confidence intervals for the primary endpoint with a half-width of 0.42% for each treatment group. This assumed a 1% standard deviation for the primary endpoint in each of the dapagliflozin and placebo arms. With the same assumption, the half-width of a 95% confidence interval for the difference between any two treatment mean changes was estimated to be 0.59%. The primary efficacy data set consisted of all randomized patients who took at least one dose of double-blind study medication during the treatment phase. The analyses of the efficacy variables (except change from baseline in insulin dose) were done excluding data after up-titration of insulin. The analyses for changes from baseline in HbAlc, FPG, insulin dose, and total body weight at week 12 (LOCF) were performed using an analysis of covariance (ANCOVA) model with treatment group as an effect and baseline value as a covariate. Point estimates and 95% confidence intervals were calculated for mean changes within each treatment group and for differences in mean changes between the dapagliflozin and placebo groups.
# [1] = Dapagliflozin 10 mg + insulin + OAD, excludes data after insulin up-titration
# [2] = Dapagliflozin 10 mg + insulin + OAD, week 12 LOCF
# [3] = Dapagliflozin 10 mg + insulin + OAD, week 12 LOCF, excludes data after insulin up-titration
# [4] = Dapagliflozin 10 mg + insulin + OAD, week 12 LOCF, excludes data after insulin up-titration, listed as dapagliflozin
# [5] = Dapagliflozin 10 mg + insulin + OAD, week 12 LOCF, of 23 patients, excludes data after insulin up-titration
# [6] = Dapagliflozin 20 mg + insulin + OAD, excludes data after insulin up-titration
# [7] = Dapagliflozin 20 mg + insulin + OAD, week 12 LOCF
# [8] = Dapagliflozin 20 mg + insulin + OAD, week 12 LOCF, excludes data after insulin up-titration
# [9] = Dapagliflozin 20 mg + insulin + OAD, week 12 LOCF, excludes data after insulin up-titration, listed as dapagliflozin
structure (smiles),measurement,setting,value
"CCOc1ccc(Cc2cc([C@@H]3O[C@H](CO)[C@@H](O)[C@H](O)[C@H]3O)ccc2Cl)cc1 [Dapagliflozin, (2S,3R,4R,5S,6R)-2-(4-chloro-3-(4-ethoxybenzyl)phenyl)-6-(hydroxymethyl)tetrahydro-2H-pyran-3,4,5-triol]","Reductions in HbAlc and improvements over placebo in FPG and PPG, dose relation, in words",10 and 20 mg dapagliflozin,dose-dependent
same,"Change from baseline in total daily insulin dose, in words","Cohort 2, week 12",no appreciable change
same,"Fasting plasma glucose, mean (SD), End of Double-blind (Week 12 LOCF)",[1],160.5 (38.7) mg/dL
same,"Weight, mean (SD), End of Double-blind (Week 12 LOCF)",[1],98.2 (9.4) kg
same,"Total daily insulin dose, mean (SD), End of Double-blind (Week 12 LOCF)",Dapagliflozin 10 mg + insulin + OAD,51.3 (20.1) U
same,"Postprandial glucose, mean (SD), End of Double-blind (Week 12 LOCF)",[1],286.0 (55.1) mg/dL
same,"Fasting plasma glucose change from baseline, difference vs placebo + insulin + OAD, mean (95% CI)",[2],−15.4 (−38.4 to 7.5) mg/dL
same,"HbA1c change from baseline, difference vs placebo + insulin + OAD, mean (95% CI)",[2],−0.70 (−1.08 to −0.32) %
same,"Patients with ↓ HbA1c ≧ 0.5%, difference in proportions vs placebo + insulin + OAD (95% CI)",[2],49.4 (20.1 to 72.4) %
same,"Total daily insulin dose change from baseline, difference vs placebo + insulin + OAD, mean (95% CI)",[2],−3.1 (−10.7 to 4.6) U
same,"Weight change from baseline, difference vs placebo + insulin + OAD, mean (95% CI)",[2],−2.6 (−4.0 to −1.2) kg
same,"Postprandial glucose, change from baseline, mean (95% CI)",[3],−34.3 (−67.5 to −1.1) mg/dL
same,"Fasting plasma glucose, change from baseline, mean (95% CI)",[3],2.4 (−13.6 to 18.3) mg/dL
same,"HbA1c, change from baseline, mean (95% CI)",[3],−0.61 (−0.87 to −0.36) %
same,"Weight, change from baseline, mean (95% CI)",[3],−4.5 (−5.5 to −3.5) kg
same,"Fasting plasma glucose, change from baseline, mean (95% CI)",[4],2.4 mg/dL
same,"Weight, change from baseline, mean (95% CI)",[4],-4.5 kg
same,"Total daily insulin dose, change from baseline, mean (95% CI)",[2],−1.4 (−6.6 to 3.9) U
same,"Patients with HbA1c < 7.0%, (%), response",[3],13.0%
same,"Patients with ↓ HbA1c ≧ 0.5%, (%), response",[3],65.2%
same,"HbA1c change from baseline, difference vs placebo + insulin + OAD, mean (95% CI)","Dapagliflozin 10 mg + insulin + OAD, week 12 LOCF, listed as dapagliflozin",−0.70%
same,"Patients with HbA1c < 7.0%, No., response",[5],3
same,"Patients with ↓ HbA1c ≧ 0.5%, No., response",[5],15
same,"HbA1c, mean (SD), End of Double-blind (Week 12 LOCF)","Dapagliflozin 10 mg once daily + insulin (50% of usual dose) + OAD, Cohort 2, excludes data after insulin up-titration",7.8 (0.7) %
same,"Fasting plasma glucose, mean (SD), End of Double-blind (Week 12 LOCF)",[6],149.4 (32.0) mg/dL
same,"Weight, mean (SD), End of Double-blind (Week 12 LOCF)",[6],97.8 (14.1) kg
same,"Total daily insulin dose, mean (SD), End of Double-blind (Week 12 LOCF)",Dapagliflozin 20 mg + insulin + OAD,53.5 (32.1) U
same,"Postprandial glucose, mean (SD), End of Double-blind (Week 12 LOCF)",[6],272.6 (51.2) mg/dL
same,"Fasting plasma glucose change from baseline, difference vs placebo + insulin + OAD, mean (95% CI)",[7],−27.4 (−50.3 to −4.6) mg/dL
same,"HbA1c change from baseline, difference vs placebo + insulin + OAD, mean (95% CI)",[7],−0.78 (−1.16 to −0.40) %
same,"Patients with ↓ HbA1c ≧ 0.5%, difference in proportions vs placebo + insulin + OAD (95% CI)",[7],49.4 (20.1 to 72.4) %
same,"Total daily insulin dose change from baseline, difference vs placebo + insulin + OAD, mean (95% CI)",[7],−2.5 (−10.2 to 5.1) U
same,"Weight change from baseline, difference vs placebo + insulin + OAD, mean (95% CI)",[7],−2.4 (−3.8 to −1.0) kg
same,"Postprandial glucose, change from baseline, mean (95% CI)",[8],−41.9 (−74.8 to −8.9) mg/dL
same,"Fasting plasma glucose, change from baseline, mean (95% CI)",[8],−9.6 (−25.6 to 6.3) mg/dL
same,"HbA1c, change from baseline, mean (95% CI)",[8],−0.69 (−0.94 to −0.43) %
same,"Weight, change from baseline, mean (95% CI)",[8],−4.3 (−5.3 to −3.3) kg
same,"Fasting plasma glucose, change from baseline, mean (95% CI)",[9],-9.6 mg/dL
same,"Weight, change from baseline, mean (95% CI)",[9],-4.3 kg
same,"Total daily insulin dose, change from baseline, mean (95% CI)",[7],−0.8 (−6.1 to 4.5) U
same,"Patients with HbA1c < 7.0%, (%), response",[8],4.3%
same,"Patients with ↓ HbA1c ≧ 0.5%, (%), response",[8],65.2%
same,"HbA1c change from baseline, difference vs placebo + insulin + OAD, mean (95% CI)","Dapagliflozin 20 mg + insulin + OAD, week 12 LOCF, listed as dapagliflozin",−0.78%
same,"Patients with HbA1c < 7.0%, No., response","Dapagliflozin 20 mg + insulin + OAD, week 12 LOCF, of 23 patients, excludes data after insulin up-titration",1
